Measured values reported in the supplement of paper PMC5908809.

Key:
[1] = system: normal NK cells expanded with K562-aAPC; experiment: drug sensitivity score (DSS) (DSS units); higher = more sensitive; extreme values may be limits of the assay; conditions: 72 h; IL-2 2.5 ng/mL
Procedure: (§1)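 Drug sensitivity and resistance testing on K562-aAPC-expanded normal NK cells: 5 concentrations (10-fold steps over a 10,000-fold range), 72 h at 37 °C, viability by CellTiter-Glo normalised to DMSO and benzethonium chloride controls; DSS from the fitted curve.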

[2] = system: normal NK cells expanded with K562-aAPC; experiment: percent inhibition of viability; higher = more inhibition; conditions: 72 h, IL-2 2.5 ng/mL
Procedure: as §1

[3] = system: normal primary NK cells, pool 3 (3 donors) (IL-2 2.5 ng/mL); experiment: as above; conditions: 72 h
NK-92 (IL-2 2.5 ng/mL) [4] = experiment: as above; conditions: 72 h
NKL (IL-2 2.5 ng/mL) [5] = experiment: as above; conditions: 72 h
YT (IL-2 2.5 ng/mL) [6] = experiment: as above; conditions: 72 h
[7] = system: normal primary NK cells, pool 1 (3 donors) (IL-2 2.5 ng/mL); experiment: as above; conditions: 72 h
IMC-1 (IL-2 20 ng/mL) [8] = experiment: as above; conditions: 72 h
KHYG-1 (IL-2 2.5 ng/mL) [9] = experiment: as above; conditions: 72 h
DERL-7 (IL-2 2.5 ng/mL) [10] = experiment: as above; conditions: 72 h
SNK-6 (IL-2 2.5 ng/mL) [11] = experiment: as above; conditions: 72 h
KAI3 (IL-2 2.5 ng/mL) [12] = experiment: as above; conditions: 72 h
[13] = system: normal primary NK cells, pool 2 (3 donors) (IL-2 2.5 ng/mL); experiment: as above; conditions: 72 h
NK-YS (IL-2 2.5 ng/mL) [14] = experiment: as above; conditions: 72 h
[15] = system: normal primary NK cells, pool 1 (3 donors), resting (IL-2 0 ng/mL); experiment: as above; conditions: 72 h
[16] = system: normal primary NK cells, pool 3 (3 donors) (IL-2 2.5 ng/mL); experiment: drug sensitivity score (DSS) (DSS units); higher = more sensitive; extreme values may be limits of the assay; conditions: 72 h
NK-92 (IL-2 2.5 ng/mL) [17] = experiment: as above; conditions: 72 h
NKL (IL-2 2.5 ng/mL) [18] = experiment: as above; conditions: 72 h
YT (IL-2 2.5 ng/mL) [19] = experiment: as above; conditions: 72 h
[20] = system: normal primary NK cells, pool 1 (3 donors) (IL-2 2.5 ng/mL); experiment: as above; conditions: 72 h
IMC-1 (IL-2 20 ng/mL) [21] = experiment: as above; conditions: 72 h
KHYG-1 (IL-2 2.5 ng/mL) [22] = experiment: as above; conditions: 72 h
DERL-7 (IL-2 2.5 ng/mL) [23] = experiment: as above; conditions: 72 h
SNK-6 (IL-2 2.5 ng/mL) [24] = experiment: as above; conditions: 72 h
KAI3 (IL-2 2.5 ng/mL) [25] = experiment: as above; conditions: 72 h
[26] = system: normal primary NK cells, pool 2 (3 donors) (IL-2 2.5 ng/mL); experiment: as above; conditions: 72 h
NK-YS (IL-2 2.5 ng/mL) [27] = experiment: as above; conditions: 72 h
[28] = system: normal primary NK cells, pool 1 (3 donors), resting (IL-2 0 ng/mL); experiment: as above; conditions: 72 h

CCCc1cc(C)[nH]c(=O)c1CNC(=O)c1cc(-c2ccnc(N3CCN(C)CC3)c2)cc2c1cnn2C(C)C [GSK343] (max concentration tested 10000 nM)
Conditions | drug sensitivity score
DERL-7 (IL-2 2.5 ng/mL) [23] | 6.76
IMC-1 (IL-2 20 ng/mL) [21] | 4.86
KAI3 (IL-2 2.5 ng/mL) [25] | 6.8
KHYG-1 (IL-2 2.5 ng/mL) [22] | 6.07
NK-92 (IL-2 2.5 ng/mL) [17] | 5.45
NK-YS (IL-2 2.5 ng/mL) [27] | 6.26
NKL (IL-2 2.5 ng/mL) [18] | 5.27
SNK-6 (IL-2 2.5 ng/mL) [24] | 5.02
YT (IL-2 2.5 ng/mL) [19] | 6
[1] | 5.07
[16] | 2.74
[20] | 6.41
[26] | 0
[28] | 6.86

percent inhibition of viability [%]
Conditions | 1 nM | 10 nM | 100 nM | 1000 nM | 10000 nM
DERL-7 (IL-2 2.5 ng/mL) [10] | 3.94 | -4.82 | 3.13 | 8.76 | 96.6
IMC-1 (IL-2 20 ng/mL) [8] | -6.79 | -3.69 | -6.5 | -9.82 | 99.4
KAI3 (IL-2 2.5 ng/mL) [12] | -6.07 | -1.68 | -2.65 | 8.26 | 99.1
KHYG-1 (IL-2 2.5 ng/mL) [9] | 0.04 | 1.72 | -6.82 | 3.86 | 99.8
NK-92 (IL-2 2.5 ng/mL) [4] | -15.4 | -9.54 | -9.12 | -0.4 | 98.1
NK-YS (IL-2 2.5 ng/mL) [14] | -5.74 | -3.63 | -4.33 | 4.65 | 101
NKL (IL-2 2.5 ng/mL) [5] | -9.45 | -14.8 | -10.7 | -3.16 | 99.2
SNK-6 (IL-2 2.5 ng/mL) [11] | -12.3 | 5.94 | -7.63 | -6.91 | 99.4
YT (IL-2 2.5 ng/mL) [6] | -0.53 | -1.05 | -6.88 | 3.69 | 99
[2] | -1.65 | -5.79 | -7.46 | -5.85 | 99.2
[3] | -4.17 | -3.24 | -2 | -6.83 | 59.2
[7] | 2.11 | -6.04 | -3.32 | 7.91 | 93.1
[13] | -8.31 | -4.46 | -6.41 | -0.99 | -0.1
[15] | -0.38 | -4.24 | -14.9 | 10.5 | 92.6

C[C@]12C=CC(=O)C=C1CC[C@@H]1[C@@H]2[C@@H](O)C[C@@]2(C)[C@H]1CC[C@]2(O)C(=O)CO [Prednisolone] (max concentration tested 10000 nM)
Conditions | drug sensitivity score
DERL-7 (IL-2 2.5 ng/mL) [23] | 26.2
IMC-1 (IL-2 20 ng/mL) [21] | 0
KAI3 (IL-2 2.5 ng/mL) [25] | 0
KHYG-1 (IL-2 2.5 ng/mL) [22] | 6.17
NK-92 (IL-2 2.5 ng/mL) [17] | 0
NK-YS (IL-2 2.5 ng/mL) [27] | 0
NKL (IL-2 2.5 ng/mL) [18] | 17.5
SNK-6 (IL-2 2.5 ng/mL) [24] | 4.24
YT (IL-2 2.5 ng/mL) [19] | 3.72
[1] | 16.2
[16] | 8.07
[20] | 15.3
[26] | 13.2
[28] | 23

percent inhibition of viability [%]
Conditions | 1 nM | 10 nM | 100 nM | 1000 nM | 10000 nM
DERL-7 (IL-2 2.5 ng/mL) [10] | -5.13 | 1.92 | 70 | 98 | 99.5
IMC-1 (IL-2 20 ng/mL) [8] | -3.99 | -3.97 | -9.73 | -19.4 | -17
KAI3 (IL-2 2.5 ng/mL) [12] | -9.17 | -13.6 | -7.78 | -7.77 | -8.06
KHYG-1 (IL-2 2.5 ng/mL) [9] | -5.42 | -2.27 | 10.1 | 29.8 | 34.5
NK-92 (IL-2 2.5 ng/mL) [4] | -16 | -15.5 | -34.4 | -24.4 | -24.4
NK-YS (IL-2 2.5 ng/mL) [14] | -2.75 | -1.1 | -1.97 | -1.53 | 5.33
NKL (IL-2 2.5 ng/mL) [5] | 3.58 | 12 | 48.8 | 51.4 | 55.3
SNK-6 (IL-2 2.5 ng/mL) [11] | 5.43 | 22.4 | 7.45 | 10.2 | 35.9
YT (IL-2 2.5 ng/mL) [6] | -0.96 | 6.16 | 13.1 | 20.2 | 18.8
[2] | -2.45 | 5 | 39.2 | 57.3 | 63.9
[3] | -9.31 | -4.01 | 13.1 | 36.8 | 47.6
[7] | 1.14 | 10.2 | 27.4 | 63.4 | 78.3
[13] | -6.45 | -3.01 | 28.6 | 51.2 | 65
[15] | 4.52 | 3.57 | 56.8 | 80.2 | 89.9
